# Measured values taken from US20130224151A1, “Use of FAAH Inhibitors for Treating Abdominal, Visceral and Pelvic Pain” (UNITED STATES OF AMERICA, priority 2010, published 2013).
# Test system: FAAH substrates (AEA, OEA, and PEA)
# Assay: Brain and GI tissue fatty acid amide levels in cortagine-induced visceral hypersensitive rats (LC-MS/MS)
# Type: in vivo, rat
# Protocol: Rats were treated with the FAAH inhibitor URB597 [3′-(aminocarbonyl) biphenyl-3-yl cyclohexylcarbamate](3 mg/kg, SC route) or vehicle (DMSO/cremophor/isotonic saline (1:1:8 v:v:v), PO route) in the cortagine-induced visceral hypersensitivity model as described in Example 3. Briefly Male Sprague-Dawley rats were habituated to Bollman cages for 3 days. The following day, rats were anesthetized with isoflurane and a 5 cm balloon pressure sensor was inserted into the distal colon 1 cm from the anus. After 20 min, a first colorectal distension (CRD) baseline was performed (10, 20, 40, 60 mmHg, 20 s duration, 4 min inter-stimulus) and the visceromotor response (VMR) assessed. After the first CRD, rats were treated with URB597 (3 mg/kg in vehicle, SC route) or vehicle (DMSO/cremophor/isotonic saline (1:1:8 v:v:v), PO route). Two hours later, rats were treated with cortagine (10 μg/kg in vehicle, IP route). After 15 min, a second CRD was performed.
# Thirty min after the second CRD, rats were anesthetized with isoflurane, decapitated, and brains were collected rapidly, placed on sheets of aluminum foil sitting on dry ice to flash freeze. A 5 cm-long segment of jejunum and a 5 cm-long segment of ascending colon were collected, split open, dipped in ice-cold physiological saline to rinse away intestinal contents, placed on aluminum foil on top of dry ice to flash freeze. Then, brains, jejunum and ascending colon were placed in separate labeled Falcon tubes, respectively, and stored at −80° C.
# On each experimental day, one naive untreated rat (n=6 total) (not treated with test compounds, not treated with cortagine and not subjected to CRD assay), kept in normal housing and handling conditions was also euthanized and its brain, jejunum and ascending colon collected as described above. The other rats were euthanized by CO2 inhalation followed by thoracotomy.
# Levels of the endocannabinoids N-arachidonoyl-ethanolamide (AEA, anandamide), N-oleoyl-ethanolamide (OEA) and N-palmitoyl-ethanolamide (PEA) in the brain, jejunum and ascending colon were measured by LC-MS/MS.
# The fatty acid amides were extracted from the samples and standards by modifications of the method described in Richardson et al, Analytical Biochemistry, 2007, 360: 216-226, as described below.
# Intestine samples were removed from the −80° C. freezer and placed on dry ice. Each intestine sample was weighed in a clean, tared 50 mL polypropylene BD Falcon tube and placed on wet ice after recording the weight. Using a glass pipette, 7 mL of (room temp.) 9:1 ethyl acetate:hexane were added to each intestine. Then, 2.5 μL of 5 μg/mL of IS (12.5 ng, prepared as indicated below) was added to each intestine sample. One conical container was removed at a time from the wet ice and homogenized until the tissue was uniformly minced. Using a homogenizer probe, the contents were homogenized for 30 seconds; 3 mL of water were added to each intestine sample, then homogenized for an additional 15 seconds. The homogenizer probe was rinsed with water between samples and with water and 70% EtOH between dose groups. The homogenates were vortexed for ˜5 sec then centrifuged at […], 3500 rpm for 20 minutes. The ethyl acetate layer (top layer) was recovered and placed in 15 mL glass tubes. The solvent was evaporated under nitrogen (TurboVap, 55° C.) until dry and the tissue extracts were reconstituted in 0.25 mL of 1:3 CHCl3:MeOH. Then the glass tubes were placed in a 37° C. shaking water bath for 5 min and vortexed again to re-suspend them. The samples were transferred to Eppendorf tubes and centrifuged (at room temp) at 13,000 rpm for 3 min. Then, 75 μL of each sample and standard was transferred to a 96 deep well plate on wet ice, and the remaining supernatant was stored at −80° C. The samples and standards were diluted to 1:1 using a multi-channel pipette by adding 75 μL of 100 ng/mL d-4-AEA in ice-cold methanol and pipetting up and down to mix. […]
# [1] = URB597 3 mg/kg SC, first trial, Student's t test
smiles,measurement,setting,value
"NC(=O)c1cccc(-c2cccc(OC(=O)NC3CCCCC3)c2)c1 [URB597, 3′-(aminocarbonyl) biphenyl-3-yl cyclohexyl carbamate, reference compound]","levels of AEA, OEA and PEA in the brain, ascending colon and jejunum","URB597 3 mg/kg SC single administration, cortagine-induced visceral hypersensitive rats, first trial, 3 mg/kg",elevated levels of the three FAAH substrates
same,levels of AEA and PEA in the jejunum,[1],statistically different from those in the naïve rats
same,"levels of AEA, OEA, and PEA in the ascending colon versus vehicle treated and naïve rats",[1],statistically different from those in the vehicle treated and naïve rats
same,"levels of AEA, OEA, and PEA in the brain versus vehicle treated and naïve rats",[1],statistically different from those in the vehicle treated and naïve rats
same,levels of OEA in the jejunum,[1],statistically different from those in the vehicle treated and naïve rats
same,"levels of AEA, OEA and PEA in the brain, ascending colon and jejunum","second trial, URB597 3 mg/kg SC + cortagine 10 ug/kg IP",elevated levels of the three FAAH substrates
